Test results published in patent publication US11214803B2, “Modulators of YAP1 expression” (Ionis Pharmaceuticals, Inc., priority 2019, dated 2022).
Marks after values point to notes of the source that are not given here. Strand notation (5' to 3'): a small letter for the sugar, then the base; units joined by * are phosphorothioate-linked, units joined directly phosphodiester-linked; [ ] holds rarer units or linkages, { } end groups; capitals alone tell only the bases. k = constrained ethyl (cEt); [5mC] = 5-methylcytosine; d = 2'-deoxy (DNA)

What follows are substances tested on Yap1 mRNA (assay: Antisense inhibition of human Yap1 in A-431 cells by cEt gapmers, single dose (Example 4, RTS4814)). Details: Table 14; A-431 cells, 5,000 cells per well, free uptake, 2,000 nM, approximately 48 hours; RTS4814; normalized to RIBOGREEN; Yap1 mRNA relative to untreated control; * = targets amplicon region of primer probe set.
Assay type: cell-based
Experimental: Modified oligonucleotides were designed to target a Yap1 nucleic acid and were tested for their effect on Yap1 mRNA level in vitro. The modified oligonucleotides were tested in a series of experiments that had similar culture conditions. Cultured A-431 cells at a density of 5,000 cells per well were treated using free uptake with 2,000 nM of modified oligonucleotide. After a treatment period of approximately 48 hours, RNA was isolated from the cells and Yap1 mRNA levels were measured by quantitative real-time RTPCR. Human primer probe set RTS4814 was used to measure mRNA levels. Yap1 mRNA levels were normalized to total RNA content, as measured by RIBOGREEN®. Results are presented in the tables below as percent control of the amount of Yap1 mRNA relative to untreated control cells (% UTC). The modified oligonucleotides with percent control values marked with an asterisk (*) target the amplicon region of the primer probe set. Additional assays may be used to measure the potency and efficacy of the modified oligonucleotides targeting the amplicon region.
The newly designed modified oligonucleotides in the Tables below were designed as 3-10-3 cEt gapmers. The gapmers are 16 nucleosides in length, wherein the central gap segment comprises of ten 2′-deoxynucleosides and is flanked by wing segments on the 5′ direction and the 3′ direction comprising three nucleosides each. Each nucleoside in the 5′ wing segment and each nucleoside in the 3′ wing segment has a cEt sugar modification. The internucleoside linkages throughout each gapmer are phosphorothioate (P═S) linkages. All cytosine residues throughout each gapmer are 5-methylcytosines.
“Start site” indicates the 5′-most nucleoside to which the gapmer is targeted in the human gene sequence. “Stop site” indicates the 3′-most nucleoside to which the gapmer is targeted human gene sequence. […] Activity of the modified oligonucleotide may be defined in a different experiment.

Substance | YAP1 (% UTC)
1075904 (kG*kT*kA*dT*dA*dG*dG*dA*dT*d[5mC]*dT*dA*d[5mC]*kT*kA*kA; antisense) [Compound 1075904] | 51
1076448 (k[5mC]*kT*kT*dA*dT*dA*dA*dT*dG*d[5mC]*dA*dA*dT*k[5mC]*k[5mC]*kT; antisense) [Compound 1076448] | 2
1076032 (kT*kA*kT*dA*dA*dT*dT*dT*d[5mC]*d[5mC]*d[5mC]*dT*dG*kA*kT*k[5mC]; antisense) [Compound 1076032] | 105
1074688 (antisense kT*k[5mC]*k[5mC]*d[5mC]*d[5mC]*d[5mC]*dT*dA*dA*dG*d[5mC]*dT*dA*kA*kA*kG) [Compound 1074688] | 83
1075168 (antisense k[5mC]*kA*kT*d[5mC]*dA*dA*dA*dA*dT*dT*dT*d[5mC]*dA*k[5mC]*kG*kA) [Compound 1075168] | 49
1076000 (k[5mC]*k[5mC]*kT*dA*dA*dT*dA*dT*dG*dA*d[5mC]*dT*d[5mC]*k[5mC]*kT*kT; antisense) [Compound 1076000] | 4
1074848 (kG*kT*kT*dA*dT*dG*dA*dT*dA*dG*dG*d[5mC]*dA*k[5mC]*kA*k[5mC]; antisense) [Compound 1074848] | 11
1076480 (antisense kG*kT*kA*dA*dA*dT*dA*dT*d[5mC]*d[5mC]*dA*dT*dT*kA*k[5mC]*k[5mC]) [Compound 1076480] | 72
1075648 (kT*k[5mC]*kA*dA*dT*dA*dA*dA*dG*dT*dG*dG*dG*kA*k[5mC]*kT; antisense) [Compound 1075648] | 67
1076256 (kT*kT*kA*dT*dT*dT*dA*dG*dG*d[5mC]*d[5mC]*d[5mC]*d[5mC]*kA*kT*kA; antisense) [Compound 1076256] | 4
1075776 (kA*kT*kG*dT*dG*dA*dT*dA*dT*dG*dG*dA*dT*kT*k[5mC]*kT; antisense) [Compound 1075776] | 10

Same assay, conditions: Table 15; A-431 cells, 5,000 cells per well, free uptake, 2,000 nM, approximately 48 hours; RTS4814; normalized to RIBOGREEN; Yap1 mRNA relative to untreated control; * = targets amplicon region of primer probe set

Substance | YAP1 (% UTC)
1074529 (kG*k[5mC]*kA*dG*dA*d[5mC]*dT*dG*d[5mC]*d[5mC]*d[5mC]*d[5mC]*dA*kA*k[5mC]*k[5mC]; antisense) [Compound 1074529] | 50
1076321 (k[5mC]*kA*kA*dT*dA*dT*d[5mC]*dA*d[5mC]*dT*dT*dG*dG*kG*k[5mC]*k[5mC]; antisense) [Compound 1076321] | 63
1075521 (kA*kA*kA*dT*d[5mC]*dG*dA*dG*dG*d[5mC]*dG*dA*dA*kT*k[5mC]*kT; antisense) [Compound 1075521] | 65
1074337 (antisense kG*kA*kG*dT*d[5mC]*d[5mC]*d[5mC]*dA*d[5mC]*d[5mC]*dA*dT*d[5mC]*k[5mC]*kT*kG) [Compound 1074337] | 10
1075169 (antisense kA*kA*kA*dA*d[5mC]*dG*dG*dA*dG*dT*dA*dA*dT*kG*k[5mC]*k[5mC]) [Compound 1075169] | 39
1074273 (antisense k[5mC]*kT*kT*dA*dT*dG*dG*dT*dT*dT*dA*dT*dA*kT*kA*kG) [Compound 1074273] | 34
1076225 (kA*kT*kA*dT*dA*dA*dA*d[5mC]*d[5mC]*dT*dT*dG*d[5mC]*kT*kA*k[5mC]; antisense) [Compound 1076225] | 66

Same assay, conditions: Table 16; A-431 cells, 5,000 cells per well, free uptake, 2,000 nM, approximately 48 hours; RTS4814; normalized to RIBOGREEN; Yap1 mRNA relative to untreated control cells

Substance | YAP1 (% UTC)
1074434 (antisense kA*k[5mC]*kT*dT*d[5mC]*dT*dA*dA*dG*dT*d[5mC]*dT*dG*kA*kG*kT) [Compound 1074434] | 51* % UTC
1076386 (kA*kG*kT*dT*dA*dT*dA*dA*d[5mC]*dA*dG*dT*dG*kT*kA*kA; antisense) [Compound 1076386] | 7 % UTC
1075778 (k[5mC]*kA*kT*dT*dT*dA*dT*dA*d[5mC]*d[5mC]*dA*dG*dG*k[5mC]*kA*k[5mC]; antisense) [Compound 1075778] | 3 % UTC
1074498 (kA*k[5mC]*kA*dA*dT*dA*dA*d[5mC]*d[5mC]*dA*dT*d[5mC]*d[5mC]*k[5mC]*kA*kA; antisense) [Compound 1074498] | 17 % UTC
1074722 (antisense kA*kG*kG*dA*dA*dG*dA*dT*d[5mC]*dT*d[5mC]*d[5mC]*dA*kT*kA*kT) [Compound 1074722] | 57 % UTC
1075938 (kG*kA*kA*dT*dA*dT*dA*dT*dG*dG*dG*dT*dT*kT*k[5mC]*kA; antisense) [Compound 1075938] | 55 % UTC
1074210 (antisense kT*k[5mC]*k[5mC]*dG*dG*dA*dG*d[5mC]*d[5mC]*dT*d[5mC]*dA*dT*kG*kG*kG) [Compound 1074210] | 113 % UTC
1075810 (kG*kT*kA*dG*d[5mC]*dA*dA*dT*dA*dG*dA*dG*dT*kA*kA*k[5mC]; antisense) [Compound 1075810] | 7 % UTC
1074306 (antisense k[5mC]*k[5mC]*kT*d[5mC]*dA*d[5mC]*d[5mC]*dT*dG*d[5mC]*d[5mC]*dG*dA*kA*kG*k[5mC]) [Compound 1074306] | 107 % UTC

Same assay, conditions: Table 17; A-431 cells, 5,000 cells per well, free uptake, 2,000 nM, approximately 48 hours; RTS4814; normalized to RIBOGREEN; Yap1 mRNA relative to untreated control cells

Substance | YAP1 (% UTC)
1075843 (k[5mC]*kA*kT*dG*dA*dA*dA*dT*dG*dA*dT*dG*dG*kA*kA*k[5mC]; antisense) [Compound 1075843] | 47
1074531 (k[5mC]*kA*k[5mC]*dT*dA*dA*dA*d[5mC]*dT*dA*d[5mC]*dT*dT*k[5mC]*kA*kA; antisense) [Compound 1074531] | 73
1076387 (kT*kG*kA*d[5mC]*dA*dA*d[5mC]*dA*d[5mC]*dA*dG*dT*dT*kA*kT*kA; antisense) [Compound 1076387] | 13
1074275 (antisense k[5mC]*kA*kA*dG*dA*dG*dG*dT*dG*dG*dT*d[5mC]*dT*kT*kG*kT) [Compound 1074275] | 73
1075363 (kA*k[5mC]*kA*d[5mC]*dA*dA*dT*dA*dT*d[5mC]*dA*dA*dG*kT*k[5mC]*k[5mC]; antisense) [Compound 1075363] | 25

Same assay, conditions: Yap1 mRNA remaining as percent of untreated control; 3-10-3 cEt gapmers; A-431 cells; Table 36

Substance | YAP1 (% UTC)
1076054 (k[5mC]*kA*kT*dT*dA*dG*dA*d[5mC]*dT*dT*dT*d[5mC]*dT*kG*kT*k[5mC]; antisense) [compound 1076054] | 21
1075190 (kT*kA*kT*d[5mC]*dA*dA*dG*dG*dA*dT*dT*d[5mC]*dA*kG*kT*kA; antisense) [compound 1075190] | 45
1074646 (antisense kA*kA*kA*dT*dT*dG*dA*dA*dG*dG*dG*d[5mC]*d[5mC]*kA*kA*kA) [compound 1074646] | 39
1074998 (antisense k[5mC]*kA*k[5mC]*dG*d[5mC]*dG*dA*d[5mC]*d[5mC]*dT*dA*d[5mC]*dT*kA*kA*kG) [compound 1074998] | 61

Same assay, conditions: Yap1 mRNA remaining as percent of untreated control; 3-10-3 cEt gapmers; A-431 cells; Table 37

Substance | YAP1 (% UTC)
1075735 (kG*kA*kA*dT*d[5mC]*dG*dA*dT*dG*dT*dG*dT*dT*kG*k[5mC]*kG; antisense) [compound 1075735] | 17
1075319 (antisense kT*kA*kT*dA*dA*d[5mC]*dA*dA*dT*d[5mC]*dA*dT*d[5mC]*k[5mC]*kT*kA) [compound 1075319] | 59
1075767 (kT*kA*kT*dT*dA*d[5mC]*dA*d[5mC]*dA*dG*dG*d[5mC]*dA*kG*kG*k[5mC]; antisense) [compound 1075767] | 12
1076375 (antisense kT*kA*kT*dA*dA*d[5mC]*dG*dG*dA*dT*dA*dT*dA*k[5mC]*kA*kA) [compound 1076375] | 22
1075959 (kG*kA*kT*dT*dA*dT*dT*dA*dT*dT*dG*d[5mC]*dA*kG*k[5mC]*kT; antisense) [compound 1075959] | 15
1074839 (kT*kA*kT*dA*dA*d[5mC]*dA*dA*d[5mC]*dA*dT*dG*d[5mC]*kT*kT*kG; antisense) [compound 1074839] | 33
1074231 (antisense kA*kA*kA*dG*dA*dA*dG*dA*d[5mC]*dT*dG*dT*d[5mC]*kG*kA*kA) [compound 1074231] | 8
1074935 (antisense kA*k[5mC]*kA*dG*dG*dA*dG*dA*d[5mC]*dT*dA*dT*dA*k[5mC]*kA*kA) [compound 1074935] | 80
1076215 (kT*kT*kA*dT*dA*dA*d[5mC]*dA*dG*dA*d[5mC]*dT*dG*kG*k[5mC]*kT; antisense) [compound 1076215] | 47
